Conditions: in n-octanol

solubility (mole fraction) (298.15 K)	solubility (mole fraction) (303.15 K)	solubility (mole fraction) (308.15 K)	solubility (mole fraction) (313.15 K)	solubility (mole fraction) (318.15 K)	solubility (mole fraction) (323.15 K)	solubility (mole fraction) (328.15 K)	solubility (mole fraction) (333.15 K)	Compound
0.000167	0.00018	0.000194	0.000213	0.000235	0.000261	0.000294	0.000332	COc1cc(NS(=O)(=O)c2ccc(N)cc2)nc(OC)n1
8.8e-05	9.42e-05	0.000101	0.000108	0.000115	0.000123	0.000132	0.000141	COc1cnc(NS(=O)(=O)c2ccc(N)cc2)nc1
	8.68e-05	9.52e-05	0.000104		0.00012	0.000129	0.000136	COc1cc(NS(=O)(=O)c2ccc(N)cc2)ncn1
